Results reported in US12410160B2 (Gilead Sciences, Inc., priority 2021, dated 2025).
Like-named read-outs stand apart in the source and are kept apart here.

Tests used:
human KHK-C = human KHK-C (Homo sapiens (Human), UniProt P50053); assay: KHK Biochemical Assay (IC50), ADP-Glo, KHK-C; settings: average of at least two separate assays
Procedure, shortened: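 Luminescent ADP-Glo read-out of ADP made by His-tagged KHK (BL21 (DE3) expression, Ni-NTA). Enzyme and compound sat together 30 min before ATP/fructose addition, then reacted 4 h at RT in Hepes pH 7.4 buffer with KCl, MgCl2, Triton-X. Quench 1 h, detection 1 h.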

HepG2 cells = assay: F1P Cell-Based Assay (EC50), 13C6-fructose-1-phosphate in HepG2 cells (cell culture medium or 50% human plasma)
Protocol: F1P Cell-Based Assay (EC50)
Compounds were serially diluted (1:3) in DMSO. The LabCyte ECHO Acoustic dispenser system was used to pre-spot the assay plates (Greiner, Catalog #781091) with 400 nL (200-fold final dilution in 80 μL assay volume) of compound. 25,000 cells/well HepG2 cells (ATCC Catalog #HB-8065) were plated in a 40 μL volume/well in DMEM medium with 4.5 g/L glucose, 1× Penicillin-Streptomycin-Glutamine, and 10% FBS, using a BioTEK dispenser in a biological hood and incubated overnight at 37° C., 5% CO2, 90% humidity. 40 μL/well serum free assay medium (for F1P assay in cell culture medium), or 40 μL/well 100% human plasma (for F1P assay in 50% human plasma) were then added to the plates on the following day, and incubated for 1 hour at 37° C., 5% CO2, 90% humidity. ^13C6-labelled fructose (Sigma, Catalog #587621) in sterile PBS was added to the plates at a final concentration of 5 mM. The plates were incubated for 2 hours at 37° C., 5% CO2, 90% humidity. The assay was quenched by washing the cells with sterile PBS and adding 60 μL/well of 80% (v/v) methanol, 2 mM ammonium acetate and 2.5 μM Crotonyl-CoA, using a BioTEK washer-dispenser system. The plates were then sealed and stored in the −80° C. freezer until ready for RapidFire readout. ^13C6-fructose-1-phosphate in individual wells was quantified using the Agilent RapidFire High-Throughput MS system in negative mode using a […]. Mobile Phase 1 consisted of 20 mM ammonium acetate with 0.05% acetic acid in 100% methanol. Mobile phase 2 consisted of 5 mM octylamine in water (pH adjusted to 5 using acetic acid). F1P signals in individual wells were normalized by crotonyl CoA internal control.

[1] = Homo sapiens, HepG2, HepG2 cells, 50% human plasma, read-out: F1P 50% HP EC50
[2] = Homo sapiens, HepG2, read-out: F1P 10% FBS EC50, HepG2 cells, cell culture medium (10% FBS)
[3] = HepG2 cells, 50% human plasma, read-out: F1P 50% HP EC50
[4] = read-out: F1P 10% FBS EC50, HepG2 cells, cell culture medium (10% FBS)

Sequence of human KHK-C (P50053 whole entry): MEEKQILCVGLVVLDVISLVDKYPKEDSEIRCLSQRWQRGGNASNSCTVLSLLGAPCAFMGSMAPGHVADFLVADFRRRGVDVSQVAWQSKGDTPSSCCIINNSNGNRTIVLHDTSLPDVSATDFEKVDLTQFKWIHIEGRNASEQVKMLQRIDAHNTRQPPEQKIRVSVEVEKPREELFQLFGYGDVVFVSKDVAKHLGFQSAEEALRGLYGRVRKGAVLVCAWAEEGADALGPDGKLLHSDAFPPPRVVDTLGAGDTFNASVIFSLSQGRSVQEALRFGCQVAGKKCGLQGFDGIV

Compound | IC50 (human KHK-C) | EC50 (HepG2 cells; [1]) | EC50 (HepG2 cells; [2]) | EC50 (HepG2 cells; [3]) | EC50 (HepG2 cells; [4])
C[C@H]1[C@H](O)CN1c1nc(-c2ccc(C3(N)COC3)c(C(F)(F)F)c2)c2c(n1)C(F)(F)CC2 [Example 514, (2S,3R)-1-(4-(4-(3-aminooxetan-3-yl)-3-(trifluoromethyl)phenyl)-7,7-difluoro-6,7-dihydro-5H-cyclopenta[d]pyrimidin-2-yl)-2-methylazetidin-3-ol] | 10.6 nM | 72.3 nM | 41.6 nM | – | –
C[C@H]1[C@H](O)CN1c1nc(-c2ccc(C(F)(F)CN)cc2)c2c(n1)C(F)(F)CC2 [Example 515, (2S,3R)-1-(4-(4-(2-amino-1,1-difluoroethyl)phenyl)-7,7-difluoro-6,7-dihydro-5H-cyclopenta[d]pyrimidin-2-yl)-2-methylazetidin-3-ol] | 29.7 nM | 126 nM | 59.1 nM | – | –
C[C@H]1[C@H](O)CN1c1nc(-c2ccc3c(c2)C2CC(C2)NC3=O)c2c(n1)C(F)(F)CC2 [Example 520, 7-(7,7-difluoro-2-((2S,3R)-3-hydroxy-2-methylazetidin-1-yl)-6,7-dihydro-5H-cyclopenta[d]pyrimidin-4-yl)-2,3,4,5-tetrahydro-1H-3,5-methanobenzo[c]azepin-1-one] | 11.1 nM | 109 nM | 49.8 nM | – | –
C[C@H]1[C@H](O)CN1c1nc(-c2ccc3c(c2)OCCNC32COC2)c2c(n1)C(F)(F)CC2 [Example 521, (2S,3R)-1-(4-(3,4-dihydro-2H-spiro[benzo[f][1,4]oxazepine-5,3′-oxetan]-8-yl)-7,7-difluoro-6,7-dihydro-5H-cyclopenta[d]pyrimidin-2-yl)-2-methylazetidin-3-ol] | 9.8 nM | > 100 nM | 68.4 nM | – | –
C[C@H]1CCN1c1nc2c(c(-c3ccc(Cl)c(S(N)(=O)=O)c3)n1)CCC2 [Example 522, (S)-2-chloro-5-(2-(2-methylazetidin-1-yl)-6,7-dihydro-5H-cyclopenta[d]pyrimidin-4-yl)benzenesulfonamide] | 44.5 nM | 454 nM | 53.3 nM | – | –
C[C@H]1[C@H](O)CN1c1nc(-c2ccc3c(c2)CCCCC3NS(C)(=O)=O)c2c(n1)C(F)(F)CC2 (stereo partly drawn) [Example 547, N-(2-(7,7-difluoro-2-((2S,3R)-3-hydroxy-2-methylazetidin-1-yl)-6,7-dihydro-5H-cyclopenta[d]pyrimidin-4-yl)-6,7,8,9-tetrahydro-5H-benzo[7]annulen-5-yl)methanesulfonamide] | 33.6 nM | > 500 nM | 314 nM | – | –
CCC1CNC(=O)c2ccc(-c3nc(N4C[C@@H](O)[C@@H]4C)nc4c3CCC4(F)F)cc2O1 (stereo partly drawn) [Example 591, 8-(7,7-difluoro-2-((2S,3R)-3-hydroxy-2-methylazetidin-1-yl)-6,7-dihydro-5H-cyclopenta[d]pyrimidin-4-yl)-2-ethyl-3,4-dihydrobenzo[f][1,4]oxazepin-5(2H)-one] | 5.5 nM | 36 nM | 13.5 nM | – | –
C[C@H]1CCN1c1nc2c(c(-c3cccc(S(=N)(=O)C(F)F)c3)n1)CCC2 (stereo partly drawn) [Example 602, (difluoromethyl)(imino)(3-(2-((S)-2-methylazetidin-1-yl)-6,7-dihydro-5H-cyclopenta[d]pyrimidin-4-yl)phenyl)-λ^6-sulfanone] | 59.7 nM | > 500 nM | 92.9 nM | – | –
C[C@H]1[C@H](O)CN1c1nc(-c2cccc(S(=N)(=O)C(F)F)c2)c2c(n1)C(F)(F)CC2 (stereo partly drawn) [Example 603, (3-(7,7-difluoro-2-((2S,3R)-3-hydroxy-2-methylazetidin-1-yl)-6,7-dihydro-5H-cyclopenta[d]pyrimidin-4-yl)phenyl)(difluoromethyl)(imino)-λ^6-sulfanone] | 25.5 nM | 103 nM | 77.2 nM | – | –
C[C@H]1[C@H](O)CN1c1nc(-c2cccc([C@H]3CCS(=O)(=O)N3)c2)c2c(n1)C(F)(F)CC2 [Example 617] | 3.5 nM | – | – | 30.7 nM | 10.2 nM
C[C@H]1[C@H](O)CN1c1nc(-c2cccc(CN3CCCS3(=O)=O)c2)c2c(n1)C(F)(F)CC2 [Example 620] | 9.7 nM | 113 nM | 19.1 nM | – | –
C[C@H]1[C@H](O)CN1c1nc(-c2ccc3c(c2)OC[C@@H]3NS(=O)(=O)c2ccccc2)c2c(n1)C(F)(F)CC2 [Example 626, N-((R)-6-(7,7-difluoro-2-((2S,3R)-3-hydroxy-2-methylazetidin-1-yl)-6,7-dihydro-5H-cyclopenta[d]pyrimidin-4-yl)-2,3-dihydrobenzofuran-3-yl)benzenesulfonamide] | 26.8 nM | 123 nM | 35.6 nM | – | –
C[C@H]1[C@H](O)CN1c1nc(-c2ccc3c(c2)OC[C@@H]3NS(=O)(=O)CC#N)c2c(n1)C(F)(F)CC2 [Example 627, 1-cyano-N-((R)-6-(7,7-difluoro-2-((2S,3R)-3-hydroxy-2-methylazetidin-1-yl)-6,7-dihydro-5H-cyclopenta[d]pyrimidin-4-yl)-2,3-dihydrobenzofuran-3-yl)methanesulfonamide] | 6 nM | 4.1 nM | 4.5 nM | – | –

The next molecules have a lower IC50 (human KHK-C) than those just listed; values first:

IC50 (human KHK-C) | EC50 (HepG2 cells; [1]) | EC50 (HepG2 cells; [2]) | EC50 (HepG2 cells; [3]) | EC50 (HepG2 cells; [4]) | Compound
2.2 nM | 23 nM | 10.1 nM | – | – | C[C@@H]1N(c2nc(-c3ccc4c(c3)CCNC43COC3)c3c(n2)C(F)(F)CC3)CC1(F)F [Example 519, (S)-6-(2-(3,3-difluoro-2-methylazetidin-1-yl)-7,7-difluoro-6,7-dihydro-5H-cyclopenta[d]pyrimidin-4-yl)-3,4-dihydro-2H-spiro[isoquinoline-1,3′-oxetane]]
0.7 nM | 51.3 nM | 5.1 nM | – | – | C[C@H]1[C@H](F)CN1c1nc(-c2ccc3c(c2)OC[C@@H]3NS(C)(=O)=O)c2c(n1)C(F)(F)CC2 [Example 523, N—((R)-6-(7,7-difluoro-2-((2S,3R)-3-fluoro-2-methylazetidin-1-yl)-6,7-dihydro-5H-cyclopenta[d]pyrimidin-4-yl)-2,3-dihydrobenzofuran-3-yl)methanesulfonamide]
1 nM | 60.1 nM | 8.2 nM | – | – | C[C@H]1[C@@H](F)CN1c1nc(-c2ccc3c(c2)OC[C@@H]3NS(C)(=O)=O)c2c(n1)C(F)(F)CC2 [Example 524, N—((R)-6-(7,7-difluoro-2-((2S,3S)-3-fluoro-2-methylazetidin-1-yl)-6,7-dihydro-5H-cyclopenta[d]pyrimidin-4-yl)-2,3-dihydrobenzofuran-3-yl)methanesulfonamide]
2.7 nM | – | – | 65.3 nM | 26.2 nM | COc1cc(-c2nc(N3C[C@@H](O)[C@@H]3C)nc3c2CCC3(F)F)cc2c1[C@@H](NS(C)(=O)=O)CO2 [Example 529, N-(6-(7,7-difluoro-2-((2S,3R)-3-hydroxy-2-methylazetidin-1-yl)-6,7-dihydro-5H-cyclopenta[d]pyrimidin-4-yl)-4-methoxy-2,3-dihydrobenzofuran-3-yl)methanesulfonamide]
1.5 nM | – | – | 142 nM | 29.7 nM | COc1cc(-c2nc(N3C[C@@H](O)[C@@H]3C)nc3c2CCC3(F)F)cc2c1[C@@H](NS(C)(=O)=O)CO2 [Example 530]
1.8 nM | 23.2 nM | 9.1 nM | – | – | C[C@H]1[C@H](F)CN1c1nc(-c2ccc3c(c2)O[C@H](CO)CNC3=O)c2c(n1)C(F)(F)CC2 [Example 590, (S)-8-(7,7-difluoro-2-((2S,3R)-3-fluoro-2-methylazetidin-1-yl)-6,7-dihydro-5H-cyclopenta[d]pyrimidin-4-yl)-2-(hydroxymethyl)-3,4-dihydrobenzo[f][1,4]oxazepin-5(2H)-one]
3.3 nM | 21 nM | 12.6 nM | – | – | C[C@H]1[C@H](O)CN1c1nc(-c2ccc3c(c2)OC(CF)CNC3=O)c2c(n1)C(F)(F)CC2 (stereo partly drawn) [Example 594, 8-(7,7-difluoro-2-((2S,3R)-3-hydroxy-2-methylazetidin-1-yl)-6,7-dihydro-5H-cyclopenta[d]pyrimidin-4-yl)-2-(fluoromethyl)-3,4-dihydrobenzo[f][1,4]oxazepin-5(2H)-one]
0.7 nM | 23.2 nM | 6.8 nM | – | – | C[C@H]1CCN1c1nc(-c2ccc3c(c2)[C@H](NS(C)(=O)=O)CC3)c2c(n1)C(F)(F)CC2 [Example 608, N—((R)-6-(7,7-difluoro-2-((S)-2-methylazetidin-1-yl)-6,7-dihydro-5H-cyclopenta[d]pyrimidin-4-yl)-2,3-dihydro-1H-inden-1-yl)methanesulfonamide]
1.5 nM | 72.2 nM | 17.6 nM | – | – | C[C@H]1[C@H](O)CN1c1nc(-c2ccc3c(c2)OC[C@@H]3NS(=O)(=O)C2CC2)c2c(n1)C(F)(F)CC2 [Example 625]
